# Source: PubChem BioAssay (NCI)
# Values joined by “and” are separate entries in the source; they are usually repeats but may differ in a detail not shown here. Equal entries are not always repeated.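 How tested: cells in 96-well plates exposed to compound for 48 hours at five concentrations. Here, GI50 denotes the concentration required for 50% inhibition of growth. TGI is the concentration that stops growth completely.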
# What was measured:
# Experiment in all cases: NCI anticancer screen, dose series, 48 h
# BT-549 breast = tested on: BT-549 breast
# HOP-62 NSCLC = tested on: HOP-62 NSCLC
# OVCAR-8 ovarian = tested on: OVCAR-8 ovarian
# NCI-H226 lung = tested on: NCI-H226 lung
# A549 NSCLC = tested on: A549 NSCLC
# HS 578T breast = tested on: HS 578T breast
# MCF7 breast = tested on: MCF7 breast
# HT29 colon = tested on: HT29 colon
# SNB-75 CNS = tested on: SNB-75 CNS
# SF-268 CNS = tested on: SF-268 CNS
Structure (SMILES),GI50 (BT-549 breast),TGI (BT-549 breast),GI50 (HOP-62 NSCLC) [µM],TGI (HOP-62 NSCLC),GI50 (OVCAR-8 ovarian) [µM],TGI (OVCAR-8 ovarian),TGI (NCI-H226 lung),TGI (A549 NSCLC),TGI (HS 578T breast),TGI (MCF7 breast),GI50 (HT29 colon) [µM],TGI (HT29 colon),GI50 (SNB-75 CNS) [µM],TGI (SNB-75 CNS),GI50 (SF-268 CNS),TGI (SF-268 CNS),GI50 (NCI-H226 lung) [µM],GI50 (A549 NSCLC) [µM],GI50 (HS 578T breast) [µM],GI50 (MCF7 breast) [µM]
CO[C@@H]1/C=C\C=C(/C)C(=O)NC2=CC(=O)C(NCCN(C)C)=C(C[C@@H](C)C[C@@H](OC)[C@@H](O)[C@H](C)/C=C(\C)[C@H]1OC(N)=O)C2=O,0.88 µM and 1.53 µM,14.6 µM and 21.1 µM,0.0859,17 µM and 19.1 µM,0.0216,2.95 µM and 6.36 µM,31.2 µM and 12.4 µM,13.3 µM and 18.8 µM,38.3 µM and 76.3 µM,1.88 µM and 3.8 µM,< 0.01,4.54 µM and 3.96 µM,< 0.0235,0.977 µM and 6.15 µM,1.19 µM and 0.209 µM,16.5 µM and 16.2 µM,–,–,–,–
COc1ccc(CN(C)c2ccc(CO)c(Cl)c2)cc1,19.8 µM,73.7 µM,7.58,> 100 µM,19.6,> 100 µM,0.279 µM,55.6 µM,> 100 µM,> 64.9 µM,5.5,> 88.3 µM,23.5,> 90.7 µM,33.4 µM,> 100 µM,0.125,5.75,38.4,0.892
CC1=C2[C@@H](CC1)[C@]1(C)O[C@@](C3CCCCC3)(C[C@H]1OC(=O)CO)[C@H]2OC(=O)/C=C/c1ccccc1,0.328 µM,6.67 µM,12,25.5 µM,0.11,12.9 µM,23.5 µM,20.5 µM,0.281 µM,13.4 µM,6.1,16.9 µM,7.94,34.8 µM,1.02 µM,17.6 µM,7.58,7.19,0.0202,3.09
Cc1nc2sc(C(=O)Nc3cccc(Cl)c3C)c(N)c2cc1C(=O)/C=C/c1ccccc1,0.525 µM,1.72 µM,0.339,1.73 µM,0.543,> 14.3 µM,1.68 µM,6.68 µM,> 13.5 µM,3.32 µM,0.178,0.888 µM,0.217,5.45 µM,0.938 µM,5.15 µM,0.483,0.476,0.38,0.192
CC(=O)c1c(C)[nH]c(-c2nc3ccc(N4CCN(C)CC4)cc3[nH]2)c1-c1ccc(OCC2CCOCC2)cc1,3.4 µM,18 µM,0.524,14.7 µM,1.5,27.9 µM,21.2 µM,17.8 µM,8.71 µM,11.6 µM,0.302,20.5 µM,0.0365,0.887 µM,3.52 µM,20.1 µM,1.87,0.714,0.346,0.218
CSc1ccc(C2=NN(C(=O)c3ccc(F)cc3)C(c3ccc(F)cc3)C2)cc1 (centres undefined),15.1 µM,30 µM,18.4,33.7 µM,13.5,28.9 µM,34.3 µM,26.9 µM,64.2 µM,17.9 µM,4.37,15.8 µM,13.1,26 µM,2.69 µM,13.4 µM,13.4,11.7,34.2,4.98
COc1cc(/C=C/C(=O)CC(=O)/C=C/c2cc(OC)c(OC)c(OC)c2)cc(OC)c1OC,4.28 µM,22.1 µM,4.45,27.7 µM,3.04,13.8 µM,> 100 µM,> 100 µM,9.51 µM,> 100 µM,3.66,13.6 µM,3.89,50.5 µM,8.23 µM,> 100 µM,10.2,5.76,3,2.13
O=Cc1ccc(-c2cc(C=O)c(-c3cccs3)[nH]2)s1,> 100 µM,75 µM and > 100 µM,> 100,72.5 µM and > 100 µM,> 100,75 µM and > 100 µM,40 µM,75 µM and > 100 µM,75 µM and > 100 µM,75 µM and > 100 µM,–,75 µM,29.5,52.2 µM and > 100 µM,> 100 µM,> 100 µM,–,29.8,> 100,7.36
CC(=O)Nc1ccc(C(=O)NN2C(=O)C(Cl)C2c2ccc(Cl)cc2)cc1 (centres undefined),–,> 100 µM,–,57.8 µM,–,> 100 µM,> 92.1 µM,> 100 µM,41.6 µM,> 100 µM,–,> 100 µM,–,30.9 µM,–,> 86.3 µM,–,–,–,–
